What was measured:
[1] = system: photoreceptors in rd10 retinal explant cultures; experiment: Remaining photoreceptor rows in rd10 organotypic retinal explant cultures; assay type: cell-based, mouse; settings: treated P11 until P17 or P24, DSPC-containing liposomes, same drug concentration
Method: FIG. 4A—Treatment of organotypic retinal explant cultures derived from the rd10 mice model. Retinas were cultured at P9 and treated from P11 until either P17 or P24 with free neuroprotective CN03 or with CN03 encapsulated in pyruvate-liposomes (Lp-Pyr/CN03). Representative images of retinal explant culture sections at P17 and P24. DAPI used as nuclear stain. ONL=outer nuclear layer, INL=inner nuclear layer.
FIG. 4B—As for 4A, shown is the number of remaining photoreceptor rows in the tissue sections. NT and CN03 substantially overlap. Results represent mean±SD. At P17: n=4-6. At P24: n=4-5. **=p≤0.01 between the Lp-Pyr/CN03 and CN03 or NT group. Statistical analysis: Two-way ANOVA with Tukey's multiple comparison test. Scale bar 50 μm.
(§1) Retinas derived from the rd1 or rd10 mouse models were cultured following the protocol described above and treated with the drugs CN03 or CN04. A treatment was done by applying a 20 μL solution containing 160 μM drug (either loaded in liposomes or in a free solution) to the top of the cultures. […] 11 z-stacks 1 μm apart were recorded, and from the projected images, the number of TUNEL-positive cells in the outer nuclear layer was manually counted. For the rd10 derived cultures, the average number of photoreceptor rows residing in the outer nuclear layer was counted from microscopy images, using the same imaging method. […]

[2] = system: photoreceptors in rd1 retinal explant cultures; experiment: TUNEL assay of dying photoreceptors in rd1 organotypic retinal explant cultures; assay type: cell-based, mouse; settings: free drug solution, 160 μM in 20 μL, final 3.14 μM, P7-P11
Method: FIG. 3A—Treatment of organotypic retinal explant cultures derived from the rd1 mouse model. Retinas were cultured at P5 and treated with either liposome-encapsulated or non-encapsulated (free) neuroprotective drugs (CN03 or CN04) from P7-P11. Assuming an equal distribution across the entire culturing medium, the final drug concentration was 3.14 μM for all treatments. The amount of dying photoreceptors in tissue sections from cultures under various treatment conditions was assessed using the TUNEL assay. DAPI was used to distinguish the outer nuclear layer (ONL). INL=inner nuclear layer. Scale bar 50 μm.
FIG. 3B—As for 3A, shown are percentages of dying (TUNEL+) cells in the ONL. Under non-treated (NT) conditions, the number of TUNEL+ cells are high in the rd1 model. Administration of free CN03 or CN04 had no significant effect on cell death. […]
as §1, with “CN04.” for “CN04. A treatment was done by applying a 20 μL solution containing 160 μM drug (either loaded in liposomes or in a free solution) to the top of the cultures.”

MCT1 = settings: cited from earlier work
MCT2 = settings: cited from earlier work
[3] = In vitro drug release from liposomes; assay type: physicochemical; settings: liposomes according to the invention, in vitro set-up
Method: Complete release of CN04 from liposomes according to the invention was shown in an in vitro set-up within 48 h. The release rate for CN03 and CN04 can be lowered by precipitation within the liposome cavity with a specific salt using a remote loading technique similar to what has been done for liposomal doxorubicin formulations. CN03 has previously been remote loaded in similar liposomes using calcium acetate salts (Vighi, E., et al., PNAS, 2018, 115(13)).

O=c1c2nc(Br)n([C@@H]3O[C@@H]4CO[P@@](=O)(S)O[C@@H]4C3O)c2nc2[nH]c(-c3ccccc3)cn12 (stereo partly drawn) [CN03, Rp-8-Br-PET-cGMPS]
Number of remaining photoreceptor rows [1]: did not achieve a rescue effect | Dying photoreceptors (TUNEL+ cells in ONL) [2]: no significant reduction in dying photoreceptors

Cc1[nH]nc(C(F)(F)F)c1Cc1sc2c(c1C(=O)N1C[C@](C)(O)CO1)c(=O)n(C)c(=O)n2C(C)C [AZD3965]
Ki (MCT1): 1.6 nM

Cc1n[nH]c(C)c1Cc1sc2c(c1C(=O)N1C[C@H](O)CO1)c(=O)n(C)c(=O)n2CC(C)C [AR-C155858]
Ki (MCT2): < 10 nM

O=c1c2nc(Sc3ccc(Cl)cc3)n([C@@H]3O[C@@H]4CO[P@@](=O)(S)O[C@@H]4C3O)c2nc2[nH]c(-c3ccccc3)cn12 (stereo partly drawn) [CN04, Rp-8-pCPT-PET-cGMPS]
Complete release from liposomes (time) [3]: ≤ 48 h | Dying photoreceptors (TUNEL+ cells in ONL) [2]: no significant reduction in dying photoreceptors

Source: patent publication US20260115312A1, “Conjugates for neuroretinal drug delivery” (Mireca Medicines GmbH, priority 2022, published 2026)
